# According to patent US9255100B2 (BAYER INTELLECTUAL PROPERTY GMBH, priority 2010, dated 2016):
# Target: T1, N-terminally GST-tagged human full length recombinant Mps-1 kinase (Homo sapiens, UniProt P33981)
# T1 construct: N-terminally GST-tagged human full length recombinant Mps-1 kinase; purchased Invitrogen, Karslruhe, Germany PV4071
# T1 sequence (P33981 1-857): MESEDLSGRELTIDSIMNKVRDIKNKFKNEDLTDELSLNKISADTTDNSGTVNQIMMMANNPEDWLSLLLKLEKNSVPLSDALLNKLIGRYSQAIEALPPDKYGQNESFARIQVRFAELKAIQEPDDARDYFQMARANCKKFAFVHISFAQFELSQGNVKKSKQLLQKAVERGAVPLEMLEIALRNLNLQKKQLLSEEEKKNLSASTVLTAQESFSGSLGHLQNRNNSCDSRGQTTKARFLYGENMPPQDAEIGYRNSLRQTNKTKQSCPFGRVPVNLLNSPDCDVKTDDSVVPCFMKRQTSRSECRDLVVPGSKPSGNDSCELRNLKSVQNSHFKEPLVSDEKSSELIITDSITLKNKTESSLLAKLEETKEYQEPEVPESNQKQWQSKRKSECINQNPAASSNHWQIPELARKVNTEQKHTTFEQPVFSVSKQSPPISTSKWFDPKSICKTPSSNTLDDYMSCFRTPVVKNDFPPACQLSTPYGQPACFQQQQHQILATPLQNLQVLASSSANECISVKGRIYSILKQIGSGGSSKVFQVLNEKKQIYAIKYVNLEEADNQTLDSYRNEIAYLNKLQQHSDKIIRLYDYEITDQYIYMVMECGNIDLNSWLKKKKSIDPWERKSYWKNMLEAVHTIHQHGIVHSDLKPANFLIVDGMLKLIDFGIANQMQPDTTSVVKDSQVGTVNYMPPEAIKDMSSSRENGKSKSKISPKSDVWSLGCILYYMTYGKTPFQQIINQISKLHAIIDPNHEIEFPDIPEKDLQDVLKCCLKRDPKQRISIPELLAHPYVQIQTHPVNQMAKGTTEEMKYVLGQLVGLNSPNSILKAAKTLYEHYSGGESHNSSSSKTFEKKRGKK
# Assay: Mps-1 kinase assay (TR-FRET)
# Type: biochemical
# Details: Mps1 IC50 [nM], 10 μM ATP, 1 μM peptide substrate, 60 min at 22° C.
# Method in brief: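 GST-Mps-1 (full length, N-term tag) ~1 nM final, linear-range adjusted per lot; biotinylated peptide substrate. Detection: Eu-anti-pSer/Thr donor → SA-XLent acceptor TR-FRET, 1 h, 22° C. Inhibition of kinase activity.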
row,SMILES,IC50 [nM]
1,"Cc1cc(-c2cnc3c(NCC(O)C(F)(F)F)cc(Cl)nn23)ccc1C(=O)NC1CC1 (racemic) [Example 205, (RS)-4-{6-Chloro-8-[(3,3,3-trifluoro-2-hydroxypropyl)amino]imidazo[1,2-b]pyridazin-3-yl}-N-cyclopropyl-2-methylbenzamide]",72.7
2,"Cc1cc(-c2cnc3c(NC[C@@H]4CCCO4)cc(-c4ccnn4C)nn23)ccc1C(=O)NC1CC1 [Example 34, N-cyclopropyl-2-methyl-4-[6-(1-methyl-1H-pyrazol-5-yl)-8-{[(2S)-tetrahydrofuran-2-ylmethyl]amino}imidazo[1,2-b]pyridazin-3-yl]benzamide]",2.4
3,"Cc1cc(-c2cnc3c(NCC(C)(C)O)cc(Sc4cc(F)cc(F)c4)nn23)ccc1C(=O)NC1CC1 [Example 68, N-cyclopropyl-4-{6-[(3,5-difluorophenyl)sulfanyl]-8-[(2-hydroxy-2-methylpropyl)amino]imidazo[1,2-b]pyridazin-3-yl}-2-methylbenzamide]",< 0.1
4,"Cc1cc(-c2cnc3c(NCCC(F)(F)F)cc(S(=O)(=O)c4cccc(F)c4)nn23)ccc1C(=O)NC1CC1 [Example 83A, N-cyclopropyl-4-{6-[(3-fluorophenyl)sulfonyl]-8-[(3,3,3-trifluoropropyl)amino]imidazo[1,2-b]pyridazin-3-yl}-2-methylbenzamide]",0.2
5,"C=Cc1cc(NCCC(F)(F)F)c2ncc(-c3ccc(-c4cnc(C5CC5)[nH]4)cc3)n2n1 [Example 22, 3-[4-(2-Cyclopropyl-1H-imidazol-5-yl)phenyl]-6-ethenyl-N-(3,3,3-trifluoropropyl)imidazo[1,2-b]pyridazin-8-amine]",35.7
6,"Cc1cc(-c2cnc3c(NCC(C)(C)O)cc(Oc4ccc(Cl)cc4)nn23)ccc1C(=O)NC1CC1 [Example 90, 4-{6-(4-Chlorophenoxy)-8-[(2-hydroxy-2-methylpropyl)amino]imidazo[1,2-b]pyridazin-3-yl}-N-cyclopropyl-2-methylbenzamide]",0.5
7,"CC(C)CNc1cc(-c2ccncc2)nn2c(-c3ccc(C(=S)NC4CC4)cc3)cnc12 [Example 13, N-cyclopropyl-4-[8-(isobutylamino)-6-(pyridin-4-yl)imidazo[1,2-b]pyridazin-3-yl]benzenecarbothioamide]",1.8
8,"Cc1cc(Sc2cc(NCC(C)(C)O)c3ncc(-c4ccc(C(=O)NC5CC5)c(C)c4)n3n2)ccc1F [Example 65, N-cyclopropyl-4-{6-[(4-fluoro-3-methylphenyl)sulfanyl]-8-[(2-hydroxy-2-methylpropyl)amino]imidazo[1,2-b]pyridazin-3-yl}-2-methylbenzamide]",0.7
9,"Cc1cc(-c2cnc3c(NCC(C)(C)N)cc(-c4ccc(F)cc4)nn23)ccc1C(=O)NC1CC1 [Example 57, 4-{8-[(2-Amino-2-methylpropyl)amino]-6-(4-fluorophenyl)imidazo[1,2-b]pyridazin-3-yl}-N-cyclopropyl-2-methylbenzamide]",4.4
10,"CC(C)CNc1cc(-c2cccc(Cl)c2)nn2c(-c3ccc(C(=O)NC4CC4)cc3)cnc12 [Example 124, 4-{6-(3-Chlorophenyl)-8-[(2-methylpropyl)amino]imidazo[1,2-b]pyridazin-3-yl}-N-cyclopropylbenzamide]",4.7

# Now from value to molecule:
row,IC50 [nM],SMILES
1,0.2,"Cc1cc(-c2cnc3c(NC[C@H]4CC[S@+]([O-])CC4)cc(Oc4cccnc4)nn23)ccc1C(=O)NC1CC1 [Example 296C, N-cyclopropyl-2-methyl-4-[8-({[(trans)-1-oxidotetrahydro-2H-thiopyran-4-yl]methyl}amino)-6-(pyridin-3-yloxy)imidazo[1,2-b]pyridazin-3-yl]benzamide]"
2,0.2,"Cc1cc(-c2cnc3c(NCCCS(C)(=O)=O)cc(Oc4cccc(F)c4)nn23)ccc1C(=O)NC1CC1 [Example 508, N-cyclopropyl-4-[6-(3-fluoro-phenoxy)-8-{[3-(methylsulfonyl)propyl]amino}imidazo[1,2-b]pyridazin-3-yl]-2-methyl-benzamide]"
3,0.2,"Cc1cc(-c2cnc3c(NCCC(F)(F)F)cc(Nc4cccc(Cl)c4)nn23)ccc1C(=O)NC1CC1 [Example 379, 4-{6-[(3-chlorophenyl)amino]-8-[(3,3,3-trifluoropropyl)amino]imidazo[1,2-b]pyridazin-3-yl}-N-cyclopropyl-2-methylbenzamide]"
4,0.1,"Cc1ccc(F)c(Nc2cc(NCCC(F)(F)F)c3ncc(-c4ccc(C(=O)NC5CC5)c(C)c4)n3n2)c1 [Example 367, N-cyclopropyl-4-{6-[(2-fluoro-5-methylphenyl)amino]-8-[(3,3,3-trifluoropropyl)amino]imidazo[1,2-b]pyridazin-3-yl}-2-methylbenzamide]"
5,0.6,"Cc1ccc(F)cc1Nc1cc(NCCCC(F)(F)F)c2ncc(-c3ccc(C(=O)NC4CC4)c(C)c3)n2n1 [Example 448, N-cyclopropyl-4-{6-[(5-fluoro-2-methylphenyl)amino]-8-[(4,4,4-trifluorobutyl)amino]imidazo[1,2-b]pyridazin-3-yl}-2-methylbenzamide]"
6,0.5,"Cc1cc(-c2cnc3c(NCC(C)(C)O)cc(Sc4cc(F)ccc4F)nn23)ccc1C(=O)NC1CC1 [Example 248, N-cyclopropyl-4-{6-[(2,5-difluorophenyl)sulfanyl]-8-[(2-hydroxy-2-methylpropyl)amino]imidazo[1,2-b]pyridazin-3-yl}-2-methylbenzamide]"
7,2.7,"Cc1cc(-c2cnc3c(NCC(C)(C)O)cc(-c4ccncc4)nn23)ccc1C(=O)NC1CC1 [Example 230, N-cyclopropyl-4-{8-[(2-hydroxy-2-methylpropyl)amino]-6-(pyridin-4-yl)imidazo[1,2-b]pyridazin-3-yl}-2-methylbenzamide]"
8,2.3,"CNC(=O)c1ccc(-c2cnc3c(NCCOC)cc(Oc4ccc(OC)cc4F)nn23)cc1C [Example 584, 4-{6-(2-fluoro-4-methoxyphenoxy)-8-[(2-methoxyethyl)a-mino]imidazo[1,2-b]pyridazin-3-yl}-N,2-dimethylbenzamide]"
9,0.2,"Cc1cc(-c2cnc3c(NCCCN4CCCC4)cc(Oc4cccc(F)c4)nn23)ccc1C(=O)NC1CC1 [Example 507, N-cyclopropyl-4-[6-(3-fluoro-phenoxy)-8-{[3-(pyrrolidin-1-yl)propyl]amino}imidazo[1,2-b]pyridazin-3-yl]-2-methyl-benzamide]"
10,0.4,"Cc1cc(-c2cnc3c(NCCN4CCOCC4)cc(Oc4cncc(F)c4)nn23)ccc1C(=O)NC1CC1 [Example 541, N-cyclopropyl-4-(6-[(5-fluoro-pyridin-3-yl)oxy]-8-{[2-(morpholin-4-yl)ethyl]amino}imidazo[1,2-b]pyridazin-3-yl)-2-methylbenzamide]"
11,32.4,"Cc1cc(-c2cnc3c(NCC(C)(C)O)cc(O[C@H]4CCNC4=O)nn23)ccc1C(=O)NC1CC1 [Example 263, N-cyclopropyl-4-(8-[(2-hydroxy-2-methylpropyl)amino]-6-{[(3S)-2-oxopyrrolidin-3-yl]oxy}imidazo[1,2-b]pyridazin-3-yl)-2-methylbenzamide]"
12,1.2,"Cc1cc(-c2cnc3c(NCC(C)(C)O)cc(Nc4cccnc4)nn23)ccc1C(=O)NC1CC1 [Example 359, N-cyclopropyl-4-{8-[(2-hydroxy-2-methylpropyl)amino]-6-(pyridin-3-ylamino)imidazo[1,2-b]pyridazin-3-yl}-2-methylbenzamide]"
13,< 1,"Cc1cc(-c2cnc3c(NCCC(F)(F)F)cc(S(=O)(=O)c4ccccc4)nn23)ccc1C(=O)NC1CC1 [Example 212, N-cyclopropyl-2-methyl-4-{6-(phenylsulfonyl)-8-[(3,3,3-trifluoropropyl)amino]imidazo[1,2-b]pyridazin-3-yl}benzamide]"
14,1.6,"Cc1cc(-c2cnc3c(NCC4CCOCC4)cc(-c4ccccc4CO)nn23)ccc1C(=O)NC1CC1 [Example 346, N-cyclopropyl-4-{6-[2-(hydroxy-methyl)phenyl]-8-[(tetrahydro-2H-pyran-4-ylmethyl)amino]imidazo[1,2-b]pyridazin-3-yl}-2-methyl-benzamide]"
15,0.1,"Cc1cc(-c2cnc3c(NC[C@H]4CC[S@+]([O-])CC4)cc(Sc4cccc(F)c4)nn23)ccc1C(=O)NC1CC1 [Example 304B, N-cyclopropyl-4-(6-[(3-fluorophenyl)sulfanyl]-8-({[(trans)-1-oxidotetrahydro-2H-thiopyran-4-yl]methyl}amino)imidazo[1,2-b]pyridazin-3-yl)-2-methylbenzamide]"
16,0.5,"Cc1cc(-c2cnc3c(NCC(C)(C)O)cc(Oc4ccc(F)nc4)nn23)ccc1C(=O)NC1CC1 [Example 410, N-cyclopropyl-4-{6-[(6-fluoropyridin-3-yl)oxy]-8-[(2-hydroxy-2-methylpropyl)amino]imidazo[1,2-b]pyridazin-3-yl}-2-methylbenzamide]"
